In one experiment the test system is HCT116 cells. In words: Cell proliferation PAD assay, HCT116. The note with it: Homo sapiens, 48 hours. It is filed as cell-based. The text has this: (§1) Table 3 illustrates the inhibitory activity of the compounds of the invention determined by the PAD assay described above in a number of cell types. Apoptosis was not
(§2) Cell lines used are available from American Type Culture Collection (ATCC), for example, cell cultures containing A549 (ATCC# CCL-185), HeLa (ATCC# CCL-2), HCT116 ATTC# CCL-247), and H1299 (ATCC# CRL-5803) cells were maintained in T175 flasks following the ATCC recommended media and handling procedures. […] A 20,000 cells/ml solution was made for plating. Cells were plated in black Packard 96 well plates by placing 100 μl per well (2,000 cells per well). […] The definitions of the cell types used are as follows: A549 is lung carcinoma; HI 299 is non-small cell lung carcinoma; HI 155 is non-small cell lung carcinoma; AsPC-1 is pancreatic adenocarcinoma; Caov-3 is ovarian adenocarcinoma; COLO 205 is colorectal adenocarcinoma; DLD-1 colorectal adenocarcinoma; HCT116 is colorectal carcinoma; DU 145 is prostate carcinoma; ES-2 is ovarian clear cell carcinoma; H460 is large cell lung carcinoma; HELA is cervical adenocarcinoma; MIA PaCa-2 is pancreatice carcinoma; OVCAR-3 is ovarian adenocarcinoma; OVCAR8 is ovarian carcinoma; PC3 is prostate adenocarcinoma; SK-OV-3 is ovarian adenocarcinoma; SU86.86 is pancreatic carcinoma; TOV-21G is avarian clear cell carcinoma; U2OS is bone osteosarcoma; is ASPC-I is pancreatic adenocarcinoma; BXPC-3 is pabcreatic adenocarcinoma; HL60 is promyeloblast promyelocytic leukemia; K562 is bone marrow chronic myelogenous leukemia; L1210 is mouse lymphocytic leukemia; MOLT3 is T lymphoblast acute lymphoblastic leukemia; MOLT4 is T lymphoblast acute lymphoblastic leukemia; SW620 is colorectal adenocarcinoma; THP-1 is monocyte acute monocytic leukemia; U937 is histiocytic lymphoma; and UACC-257 is melanoma.
(§3) Compounds and additional media were added 24 hours after cell plating. A compound master plate was created with concentrations 500 times greater than the final concentration added to the cells. All compound testing was done in duplicate using 6.3 fold dilutions starting with 10 mM. All outside wells (and 4 internal wells) were DMSO controls. Taxol and at least one additional control were run on all plates. Three microliters of the compound master plate were added to deep well blocks containing 750 μl of RPMI media. One hundred microliters were transferred from the compound/media deep well blocks to the plated cells resulting in a 500 fold dilution of the compounds. Cells were grown at 37° C., 5% CO2 for 48 hours.
(§4) Cells to be analyzed by photography were fixed and stained. One hundred microliters of media were removed and 100 μl of 9.3% formamide was added to each well. Plates were left on the benchtop for 45 minutes. A staining solution containing 1.55 μl of 1 mg/ml DAPI added to 18.75 ml PBS was warmed for 15 minutes at 37° C. The cells were aspirated prior to washing with 100 μl of PBS. Seventy microliters of PBS were aspirated and 170 μl of the DAPI solution were added to each well of fixed cells. Plates were left at room temperature for one hour then aspirated and washed twice with 100 μl of PBS. The stained cells were left at 4° C. for a minimum of 16 hours before photographic analysis with Array Scan II (Cellomics). Analysis of the photographic images to determine numbers of live cells (proliferation), apoptotic cells and dead cells, were according to the methods described in U.S. Utility patent application Ser. No. 10/652,440, which incorporated herein in its entirety.

The test system of the next experiment is DLD-1 cells. In words: Cell proliferation PAD assay, DLD-1. The experiment is classed as cell-based. The note with it: Homo sapiens, DLD1 cells, 6pt, 48 hours.
Excerpt: as §1, §2, §3, §4

The subject of another experiment is U2OS cells. In words: Cell proliferation PAD assay, U2OS. The experiment is classed as cell-based. The note with it: Homo sapiens, 6pt, 48 hours.
Excerpt: as §1, §2, §3, §4

The next experiment has as its system UACC-257 cells. In words: Cell proliferation PAD assay, UACC-257. As to conditions: Homo sapiens, UACC257 cells, 6pt, 48 hours. It is filed as cell-based. The procedure: as §2
(§5) Compounds and additional media were added 24 hours after cell plating. […] All compound testing was done in duplicate using 6.3 fold dilutions starting with 10 mM. […] Taxol and at least one additional control were run on all plates. Three microliters of the compound master plate were added to deep well blocks containing 750 μl of RPMI media. One hundred microliters were transferred from the compound/media deep well blocks to the plated cells resulting in a 500 fold dilution of the compounds. Cells were grown at 37° C., 5% CO2 for 48 hours.
as §4

In a further experiment the test system is OVCAR8 cells. In words: Cell proliferation PAD assay, OVCAR8. The experiment is classed as cell-based. As to conditions: Homo sapiens, OVCAR-8, 6pt, 48 hours. As to the method: as §2, §5, §4
For the next experiment, the target named is T1, ROC1/CUL1 (Homo sapiens, UniProt P62877+Q13616).
T1 construct: made in house
T1 sequence (P62877 whole entry): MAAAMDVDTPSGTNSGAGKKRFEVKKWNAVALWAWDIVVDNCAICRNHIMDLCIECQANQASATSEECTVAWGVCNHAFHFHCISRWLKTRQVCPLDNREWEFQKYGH
T1 sequence (Q13616 whole entry): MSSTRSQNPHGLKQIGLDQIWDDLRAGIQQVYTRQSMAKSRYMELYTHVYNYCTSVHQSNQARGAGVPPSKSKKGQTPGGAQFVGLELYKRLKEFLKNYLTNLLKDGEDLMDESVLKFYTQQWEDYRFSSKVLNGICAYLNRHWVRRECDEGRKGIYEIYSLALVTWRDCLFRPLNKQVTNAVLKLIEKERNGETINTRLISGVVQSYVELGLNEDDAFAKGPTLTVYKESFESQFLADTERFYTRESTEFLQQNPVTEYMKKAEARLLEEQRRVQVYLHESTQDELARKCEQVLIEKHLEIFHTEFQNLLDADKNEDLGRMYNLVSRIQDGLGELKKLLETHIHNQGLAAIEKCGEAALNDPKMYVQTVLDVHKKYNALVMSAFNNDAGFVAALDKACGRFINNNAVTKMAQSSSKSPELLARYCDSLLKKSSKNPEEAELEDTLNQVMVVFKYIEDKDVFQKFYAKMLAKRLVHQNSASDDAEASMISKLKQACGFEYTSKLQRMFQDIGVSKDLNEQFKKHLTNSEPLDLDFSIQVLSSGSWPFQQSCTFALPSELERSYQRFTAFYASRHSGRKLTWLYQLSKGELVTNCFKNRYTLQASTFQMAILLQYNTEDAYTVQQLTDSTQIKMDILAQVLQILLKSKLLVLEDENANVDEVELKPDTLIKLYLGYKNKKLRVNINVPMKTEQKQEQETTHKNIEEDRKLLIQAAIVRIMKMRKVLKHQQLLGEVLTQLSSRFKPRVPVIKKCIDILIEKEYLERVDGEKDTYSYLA
Briefly: ROC1/CUL1 ubiquitin ligase assay (SCF assay). The experiment is classed as biochemical. Put shortly:
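His-ROC1/CUL1 (100 ng/well) with E1 (5 ng/well), UbcH5c E2 (25 nl/well) and Flag-ubiquitin (100 ng) on nickel-coated plates; the reaction solution held Tris pH 7.5, MgCl2, DTT and 2.5 mM ATP. Compounds were added and the reaction ran 1 h at RT. Bound ubiquitin was read by anti-Flag/HRP luminescence, giving IC50 across compound concentrations.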

Where [1] appears, read: HCT-116, 6pt, read-out: HCT116 6pt.

Molecules are shown by their SMILES. Where two headings read alike, the source gives them in different places.

On to `O=[N+]([O-])c1ccc(SCCO)c2nonc12` [compound 150, 2-[(7-nitro-2,1,3-benzoxadiazol-4-yl)thio]ethanol], for which the IC50 in the experiment with HCT116 cells (setting [1]), with DLD-1 cells and in the experiment on U2OS cells was less than 1000 nM each time.
On to `O=[N+]([O-])c1ccc(N2CCC(O)(c3ccc(Cl)cc3)CC2)c2nonc12` [compound 159, 4-(4-chlorophenyl)-1-(7-nitro-2,1,3-benzoxadiazol-4-yl)piperidin-4-ol], for which the results for the IC50 with UACC-257 cells and with OVCAR8 cells were not below 20000 nM and 1000 to 20000 nM, respectively.
Regarding `COC(=O)c1ccc(NS(=O)(=O)c2ccc(F)c3nonc23)cc1` [compound 167, methyl 4-{[(7-fluoro-2,1,3-benzoxadiazol-4-yl)sulfonyl]amino}benzoate], the IC50 in the experiment with U2OS cells is less than 1000 nM.
In turn, `O=S(=O)(Oc1ccc(N2CCN(S(=O)(=O)c3ccc(Cl)c4nonc34)CC2)cc1)c1ccc(Cl)c2nonc12` [compound 171, 4-{4-[(7-chloro-2,1,3-benzoxadiazol-4-yl)sulfonyl]piperazin-1-yl}phenyl 7-chloro-2,1,3-benzoxadiazole-4-sulfonate] yielded an IC50 in the experiment on U2OS cells of less than 1000 nM.
As for `COC(=O)c1ccc(NS(=O)(=O)c2c(Cl)ccc3nonc23)cc1` [compound 178, methyl 4-{[(5-chloro-2,1,3-benzoxadiazol-4-yl)sulfonyl]amino}benzoate], the IC50 in the experiment on HCT116 cells (setting [1]), in the experiment with DLD-1 cells and in the experiment on U2OS cells was less than 1000 nM throughout.
On to `O=S(=O)(c1c(Cl)ccc2nonc12)N1CCN(c2ncc(C(F)(F)F)cc2Cl)CC1` [compound 179, 5-chloro-4-({4-[3-chloro-5-(trifluoromethyl)pyridin-2-yl]piperazin-1-yl}sulfonyl)-2,1,3-benzoxadiazole], for which the IC50 with HCT116 cells (setting [1]) is 1000 to 20000 nM; in the experiment with DLD-1 cells, 1000 to 20000 nM; with U2OS cells, less than 1000 nM.
`O=c1[nH]c2ccccc2n1C1CCN(S(=O)(=O)c2ccc(Cl)c3nonc23)CC1` [compound 188, 1-{1-[(7-chloro-2,1,3-benzoxadiazol-4-yl)sulfonyl]piperidin-4-yl}-1,3-dihydro-2H-benzimidazol-2-one] came in with an IC50 with U2OS cells of less than 1000 nM.
`CC(=O)N1CCN(S(=O)(=O)c2c(Cl)ccc3nonc23)CC1` [compound 201, 4-[(4-acetylpiperazin-1-yl)sulfonyl]-5-chloro-2,1,3-benzoxadiazole] yielded an IC50 in the experiment with U2OS cells of less than 1000 nM.
Turning to `Cc1cccc(N2CCN(S(=O)(=O)c3c(Cl)ccc4nonc34)CC2)n1` [compound 202, 5-chloro-4-{[4-(6-methylpyridin-2-yl)piperazin-1-yl]sulfonyl}-2,1,3-benzoxadiazole], the IC50 in the experiment with HCT116 cells (setting [1]), in the experiment with DLD-1 cells and with U2OS cells was less than 1000 nM throughout.
As for `O=S(=O)(Nc1ccc2cn[nH]c2c1)c1ccc(Cl)c2nonc12` [compound 220, 7-chloro-N-1 H-indazol-6-yl-2,1,3-benzoxadiazole-4-sulfonamide], the IC50 in the experiment on HCT116 cells (setting [1]), in the experiment on DLD-1 cells and in the experiment on U2OS cells was 1000 to 20000 nM each time.
As to `CC1(C)CCN(S(=O)(=O)c2c(Cl)ccc3nonc23)CC1` [compound 245, 5-chloro-4-[(4,4-dimethylpiperidin-1-yl)sulfonyl]-2,1,3-benzoxadiazole], the IC50 with HCT116 cells (HCT-116, 9pt, read-out: HCT116 9pt) is less than 1000 nM; on ROC1/CUL1, not below 20000 nM.
For `Cc1cc(C)cc(-c2ccc([N+](=O)[O-])c3nonc23)c1` [compound 286, 4-(3,5-Dimethylphenyl)-7-nitro-2,1,3-benzoxadiazole], the figures for the IC50 in the experiment on HCT116 cells (setting [1]), with DLD-1 cells and with U2OS cells were less than 1000 nM, 1000 to 20000 nM and less than 1000 nM, respectively.
Consider `O=[N+]([O-])c1ccc(N2CCN(c3ncc(C(F)(F)F)cc3Cl)CC2)c2nonc12` [compound 315, 4-{4-[3-chloro-5-(trifluoromethyl)pyrindin-2-yl]piperazin-1-yl}-7-nitro-2,1,3-benzoxadiazole], for which the results for the IC50 in the experiment with UACC-257 cells and in the experiment with OVCAR8 cells were not below 20000 nM and 1000 to 20000 nM, respectively.
